27 compounds from patent publication US10344025B2, “GLS1 inhibitors for treating disease” (Board of Regents, The University of Texas System, priority 2014, dated 2019) can be followed below.

For one experiment, the system named is A549 cells. Description: Proliferation Assay (A549 viability, Cell Titer Fluor, 72 hours). The class given is cell-based. The following applies: Homo sapiens, A549, 72 h. The method, boiled down:
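A549 cells seeded at 1000 cells/well, rested 24 h, then exposed to compound in 0.5% DMSO for 72 h at 37 °C. Viability read by Cell Titer Fluor fluorescence; IC50 from four-parameter logistic fit.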

The target of experiment [1] is purified recombinant human GAC (GLS1) (Homo sapiens (Human), UniProt O94925). Description: GLS1 Enzymatic Activity Assay (dual-coupled enzymatic assay, resorufin/Amplex UltraRed readout).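 Note: glutamate from GAC coupled via glutamate oxidase and peroxidase to resorufin, read as fluorescence (ex 530, em 590 nm) kinetically or at 20 min, four-parameter logistic IC50 fit.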 The class given is biochemical.
purified recombinant human GAC (GLS1), sequence (O94925 other isoform, or with tags, fused parts or gaps): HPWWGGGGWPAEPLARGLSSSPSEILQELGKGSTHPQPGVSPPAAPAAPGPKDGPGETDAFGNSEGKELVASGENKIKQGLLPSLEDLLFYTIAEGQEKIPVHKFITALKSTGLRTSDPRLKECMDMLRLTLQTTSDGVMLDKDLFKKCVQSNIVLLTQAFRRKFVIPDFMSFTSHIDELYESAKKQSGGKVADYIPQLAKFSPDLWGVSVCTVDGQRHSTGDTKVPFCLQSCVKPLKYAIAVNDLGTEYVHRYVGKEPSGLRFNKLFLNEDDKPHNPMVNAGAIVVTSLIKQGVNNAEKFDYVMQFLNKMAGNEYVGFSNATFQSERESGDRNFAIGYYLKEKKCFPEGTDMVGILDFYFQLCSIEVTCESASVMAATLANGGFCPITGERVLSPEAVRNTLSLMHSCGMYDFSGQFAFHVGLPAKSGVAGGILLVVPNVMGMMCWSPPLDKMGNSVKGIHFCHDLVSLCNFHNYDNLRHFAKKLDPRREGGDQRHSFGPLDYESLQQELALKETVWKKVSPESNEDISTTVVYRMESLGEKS

The structures appear in SMILES notation. Where “and” joins values, the source holds several entries; their conditions need not be identical. Identical values can stand only once.

One may read the EC50 as the concentration at which the effect is half-maximal. A high value points to a need for much substance. Usually IC50 stands for the concentration that inhibits the measured activity by half. In the experiment with A549 cells, `O=C(Cc1cccc(OC(F)(F)F)c1)Nc1nnc(CCCCn2cc(C(=O)NCc3ccccn3)nn2)s1` [Example 19, N-(pyridin-2-ylmethyl)-1-[4-(5-{2-[3-(trifluoromethoxy)phenyl]acetamido}-1,3,4-thiadiazol-2-yl)butyl]-1H-1,2,3-triazole-4-carboxamide] gave an EC50 of under 100 nM. Moreover, the IC50 in experiment [1] is under 100 nM.

As to `O=C(Cc1cccc(OC(F)(F)F)c1)Nc1nnc(CCCCn2cc(C(=O)NCc3cccc(OC(F)(F)F)c3)nn2)s1` [Example 20, 1-[4-(5-{2-[3-(trifluoromethoxy)phenyl]acetamido}-1,3,4-thiadiazol-2-yl)butyl}-N-{[3-(trifluoromethoxy)phenyl]methyl}-1H-1,2,3-triazole-4-carboxamide], the EC50 in the experiment with A549 cells was under 100 nM. Also, the IC50 in experiment [1] was under 100 nM.

In the experiment with A549 cells, `O=C(Cc1cccc(OC(F)(F)F)c1)Nc1nnc(CCCCn2cc(C(=O)N[C@@H](CO)c3ccccc3)nn2)s1` [Example 21, N-[(1R)-2-hydroxy-1-phenylethyl]-1-[4-(5-{2-[3-(trifluoromethoxy)phenyl]acetamido}-1,3,4-thiadiazol-2-yl)butyl]-1H-1,2,3-triazole-4-carboxamide] gave a 50% effective concentration (EC50) of 100 to 500 nM. In addition, in experiment [1], the IC50 was under 100 nM.

Turning to `COc1ccc(CNC(=O)c2cn(CCCCc3nnc(NC(=O)Cc4cccc(OC(F)(F)F)c4)s3)nn2)c(OC)c1` [Example 22, N-[(2,4-dimethoxyphenyl)methyl]-1-[4-(5-{2-[3-(trifluoromethoxy)phenyl]acetamido}-1,3,4-thiadiazol-2-yl)butyl]-1H-1,2,3-triazole-4-carboxamide], the EC50 in the experiment on A549 cells lay in the range of 100 to 500 nM. Besides, the IC50 in experiment [1] was under 100 nM.

With `O=C(Cc1cccc(OC(F)(F)F)c1)Nc1nnc(CCCCn2cc(C(=O)N[C@H](CO)c3ccccc3)nn2)s1` [Example 23, N-[(1S)-2-hydroxy-1-phenylethyl]-1-[4-(5-{2-[3-(trifluoromethoxy)phenyl]acetamido}-1,3,4-thiadiazol-2-yl)butyl]-1H-1,2,3-triazole-4-carboxamide], in the experiment on A549 cells, the EC50 is 100 to 500 nM. Also, in experiment [1], the half-inhibitory concentration (IC50) was under 100 nM.

In the experiment with A549 cells, `CC(C)CNC(=O)c1cn(CCCCc2ccc(NC(=O)Cc3ccccc3)nn2)nn1` [Example 24, N-(2-methylpropyl)-1-{4-[6-(2-phenylacetamido)pyridazin-3-yl]butyl}-1H-1,2,3-triazole-4-carboxamide] displayed a half-maximal effective concentration (EC50) of under 100 nM. Further, in experiment [1], the IC50 was under 100 nM.

Consider `O=C(NCCc1ccccc1)c1nnc(CCCCc2ccc(NC(=O)[C@@H](O)c3ccccc3)nn2)s1` [Example 25, 5-(4-{6-[(2S)-2-hydroxy-2-phenylacetamido]pyridazin-3-yl}butyl)-N-(2-phenylethyl)-1,3,4-thiadiazole-2-carboxamide], for which the 50% effective concentration (EC50) in the experiment with A549 cells lay in the range of 100 to 500 nM. Further, the half-inhibitory concentration (IC50) in experiment [1] was under 100 nM.

In the case of `O=C(Cc1ccccc1)Nc1ccc(CCCCc2nnc(C(=O)NCCc3ccccc3)s2)nn1` [Example 26, 5-{4-[6-(2-phenylacetamido)pyridazin-3-yl]butyl}-N-(2-phenylethyl)-1,3,4-thiadiazole-2-carboxamide], the 50% effective concentration (EC50) in the experiment on A549 cells is under 100 nM. Also, in experiment [1], the IC50 was under 100 nM.

In turn, `O=C(Cc1cccnc1)Nc1ccc(CCCCc2nnc(C(=O)NCCc3ccccc3)s2)nn1` [Example 27] registered an EC50 with A549 cells of under 100 nM. For the same compound, the IC50 in experiment [1] was under 100 nM.

In the experiment on A549 cells, `O=C(Cc1ccccc1)Nc1ccc(CCCCc2nnc(C(=O)NCc3ccccc3)s2)nn1` [Example 28, N-benzyl-5-{4-[6-(2-phenylacetamido)pyridazin-3-yl]butyl}-1,3,4-thiadiazole-2-carboxamide] had a concentration giving a half-maximal response (EC50) of 100 to 500 nM. Further, the IC50 in experiment [1] was under 100 nM.

In turn, `O=C(NCc1ccccc1)c1nnc(CCCCc2ccc(NC(=O)[C@@H](O)c3ccccc3)nn2)s1` [Example 29, N-benzyl-5-(4-{6-[(2S)-2-hydroxy-2-phenylacetamido]pyridazin-3-yl}butyl)-1,3,4-thiadiazole-2-carboxamide] had a concentration for a half-maximal effect (EC50) with A549 cells of under 100 nM. For the same compound, the IC50 in experiment [1] was under 100 nM.

For the compound `O=C(Cc1cccnc1)Nc1ccc(CCCCc2nnc(C(=O)NCc3ccccc3)s2)nn1` [Example 30, N-benzyl-5-(4-{6-[2-(pyridin-3-yl)acetamido]pyridazin-3-yl}butyl)-1,3,4-thiadiazole-2-carboxamide], in the experiment on A549 cells, the concentration for a half-maximal effect (EC50) was under 100 nM. The IC50 in experiment [1] is under 100 nM.

For `CC(C)CNC(=O)c1nnc(CCCCc2ccc(NC(=O)Cc3cccc(OC(F)(F)F)c3)nn2)s1` [Example 31, N-(2-methylpropyl)-5-[4-(6-{2-[3-(trifluoromethoxy)phenyl]acetamido}pyridazin-3-yl)butyl]-1,3,4-thiadiazole-2-carboxamide], the EC50 in the experiment on A549 cells is under 100 nM. Moreover, the half-inhibitory concentration (IC50) in experiment [1] was under 100 nM.

`O=C(Cc1cccc(OC(F)(F)F)c1)Nc1ccc(CCCCc2nnc(C(=O)NCc3ccccn3)s2)nn1` [Example 32, N-(pyridin-2-ylmethyl)-5-[4-(6-{2-[3-(trifluoromethoxy)phenyl]acetamido}pyridazin-3-yl)butyl]-1,3,4-thiadiazole-2-carboxamide]: in the experiment with A549 cells, the half-maximal effective concentration (EC50) was under 100 nM. Moreover, the IC50 in experiment [1] is under 100 nM.

In the case of `O=C(Cc1cccc(OC(F)(F)F)c1)Nc1ccc(CCCCc2nnc(C(=O)NCC3COC3)s2)nn1` [Example 33, N-(oxetan-3-ylmethyl)-5-[4-(6-{2-[3-(trifluoromethoxy)phenyl]acetamido}pyridazin-3-yl)butyl]-1,3,4-thiadiazole-2-carboxamide], the EC50 with A549 cells is under 100 nM. The IC50 in experiment [1] is under 100 nM.

As for `CC(C)(O)CNC(=O)c1nnc(CCCCc2ccc(NC(=O)Cc3cccc(OC(F)(F)F)c3)nn2)s1` [Example 34, N-(2-hydroxy-2-methylpropyl)-5-[4-(6-{2-[3-(trifluoromethoxy)phenyl]acetamido}pyridazin-3-yl)butyl]-1,3,4-thiadiazole-2-carboxamide], the EC50 in the experiment on A549 cells lay within 100 to 500 nM. The IC50 in experiment [1] is < 100 nM and 100 to 500 nM.

`O=C(Cc1cccc(OC(F)(F)F)c1)Nc1ccc(CCCCc2nnc(C(=O)NCc3ccccc3)s2)nn1` [Example 36, N-benzyl-5-[4-(6-{2-[3-(trifluoromethoxy)phenyl]acetamido}pyridazin-3-yl)butyl]-1,3,4-thiadiazole-2-carboxamide] showed an EC50 in the experiment on A549 cells of under 100 nM. Further, in experiment [1], the concentration for half-maximal inhibition (IC50) is under 100 nM.

In the experiment on A549 cells, `O=C(Cc1cccc(OC(F)(F)F)c1)Nc1ccc(CCCCc2nnc(C(=O)NCCO)s2)nn1` [Example 37, N-(2-hydroxyethyl)-5-[4-(6-{2-[3-(trifluoromethoxy)phenyl]acetamido}pyridazin-3-yl)butyl]-1,3,4-thiadiazole-2-carboxamide] came in with an EC50 of under 100 nM. In experiment [1], the IC50 is under 100 nM.

On to `O=C(NCc1ccccc1)c1cn(CCCCc2nnc(C(=O)NCCO)s2)nn1` [Example 41, 5-{4-[4-(benzylcarbamoyl)-1H-1,2,3-triazol-1-yl]butyl}-N-(2-hydroxyethyl)-1,3,4-thiadiazole-2-carboxamide], for which the concentration for a half-maximal effect (EC50) in the experiment on A549 cells is 500 to 5000 nM. Further, in experiment [1], the IC50 lay within 500 to 5000 nM.

With `O=C(NCc1cccc(OC(F)(F)F)c1)c1cn(CCCCc2nnc(C(=O)NCCO)s2)nn1` [Example 45, N-(2-hydroxyethyl)-5-{4-[4-({[3-(trifluoromethoxy)phenyl]methyl}carbamoyl)-1H-1,2,3-triazol-1-yl]butyl}-1,3,4-thiadiazole-2-carboxamide], the half-maximal effective concentration (EC50) with A549 cells fell in the range of 500 to 5000 nM. In experiment [1], the IC50 is 100 to 500 nM.

In the case of `O=C(NCc1cccc(OC(F)(F)F)c1)c1cn(CCCCc2nnc(C(=O)NCc3cccc(OC(F)(F)F)c3)s2)nn1` [Example 46, N-{[3-(trifluoromethoxy)phenyl]methyl}-5-{4-[4-({[3-(trifluoromethoxy)phenyl]methyl}carbamoyl)-1H-1,2,3-triazol-1-yl]butyl}-1,3,4-thiadiazole-2-carboxamide], the EC50 with A549 cells was under 100 nM. The IC50 in experiment [1] was under 100 nM.

In the experiment on A549 cells, `O=C(NCc1cccc(OC(F)(F)F)c1)c1cn(CCCCc2nnc(C(=O)NCc3ccccn3)s2)nn1` [Example 47, N-(pyridin-2-ylmethyl)-5-{4-[4-({[3-(trifluoromethoxy)phenyl]methyl}carbamoyl)-1H-1,2,3-triazol-1-yl]butyl}-1,3,4-thiadiazole-2-carboxamide] showed a half-maximal effective concentration (EC50) of 100 to 500 nM. The IC50 in experiment [1] was under 100 nM.

Consider `CC(C)(O)CNC(=O)c1nnc(CCCCn2cc(C(=O)NCc3cccc(OC(F)(F)F)c3)nn2)s1` [Example 48, N-(2-hydroxy-2-methylpropyl)-5-{4-[4-({[3-(trifluoromethoxy)phenyl]methyl}carbamoyl)-1H-1,2,3-triazol-1-yl]butyl}-1,3,4-thiadiazole-2-carboxamide], for which, in the experiment on A549 cells, the EC50 lay in the range of 500 to 5000 nM. Also, in experiment [1], the concentration for half-maximal inhibition (IC50) was 500 to 5000 nM.

With `O=C(NCc1cccc(OC(F)(F)F)c1)c1cn(CCCCc2nnc(C(=O)NCCN3CCCC3)s2)nn1` [Example 49, N-[2-(pyrrolidin-1-yl)ethyl]-5-{4-[4-({[3-(trifluoromethoxy)phenyl]methyl}carbamoyl)-1H-1,2,3-triazol-1-yl]butyl}-1,3,4-thiadiazole-2-carboxamide], in the experiment with A549 cells, the concentration for a half-maximal effect (EC50) is over 5000 nM. In experiment [1], the half-maximal inhibitory concentration (IC50) was 500 to 5000 nM.

`O=C(NCc1cccc(OC(F)(F)F)c1)c1cn(CCCCc2nnc(C(=O)NCC3COC3)s2)nn1` [Example 50, N-(oxetan-3-ylmethyl)-5-{4-[4-({[3-(trifluoromethoxy)phenyl]methyl}carbamoyl)-1H-1,2,3-triazol-1-yl]butyl}-1,3,4-thiadiazole-2-carboxamide] returned a concentration giving a half-maximal response (EC50) in the experiment with A549 cells of 500 to 5000 nM. For the same compound, in experiment [1], the 50% inhibitory concentration (IC50) lay in the range of 100 to 500 nM.

Consider `O=C(NCc1cccc(OC(F)(F)F)c1)c1cn(CCCCc2nnc(C(=O)NC3COC3)s2)nn1` [Example 51, N-(oxetan-3-yl)-5-{4-[4-({[3-(trifluoromethoxy)phenyl]methyl}carbamoyl)-1H-1,2,3-triazol-1-yl]butyl}-1,3,4-thiadiazole-2-carboxamide], for which the concentration giving a half-maximal response (EC50) with A549 cells fell in the range of 500 to 5000 nM. In addition, the IC50 in experiment [1] is 100 to 500 nM.

`COCCNC(=O)c1nnc(CCCCn2cc(C(=O)NCc3ccccc3)nn2)s1` [Example 52, 5-{4-[4-(benzylcarbamoyl)-1H-1,2,3-triazol-1-yl]butyl}-N-(2-methoxyethyl)-1,3,4-thiadiazole-2-carboxamide]: the concentration for a half-maximal effect (EC50) in the experiment with A549 cells is over 5000 nM. Besides, in experiment [1], the 50% inhibitory concentration (IC50) is 500 to 5000 nM.
